Measured values taken from ChEMBL document CHEMBL1147077, “Induced-fit tightens pleuromutilins binding to ribosomes and remote interactions enable their selectivity” (Proc Natl Acad Sci U S A, 2007).

Legend:
[1] = Displacement of [3H]SB-2587891 from Escherichia coli ribosomes; type: subcellular, Ribosome
[2] = system: Staphylococcus aureus; experiment: Antimicrobial activity against Staphylococcus aureus; type: functional
[3] = system: Streptococcus pyogenes; experiment: Antimicrobial activity against Streptococcus pyogenes; type: functional

Row | MIC [2] | MIC [3] | Structure (SMILES) | Kd [1]
1 |  |  | C=C[C@]1(C)C[C@@H](OC(=O)CSC2CCNCC2)[C@]2(C)[C@H](C)CC[C@]3(CCC(=O)[C@H]32)[C@@H](C)[C@@H]1O | 7.5 nM
2 | ≤ 0.5 µg/mL | ≤ 0.5 µg/mL | C=C[C@]1(C)C[C@@H](OC(=O)CS[C@@H]2C[C@H]3CC[C@@H](C2)N3C)[C@]2(C)[C@H](C)CC[C@]3(CCC(=O)[C@H]32)[C@@H](C)[C@@H]1O [RETAPAMULIN] | 2 nM
3 |  |  | C=C[C@]1(C)C[C@@H](OC(=O)NC(=O)c2ccc(N)nn2)[C@]2(C)[C@H](C)CC[C@]3(C[C@H](O)C(=O)[C@H]32)[C@@H](C)[C@@H]1O | 11.1 nM
